Converted amounts (≈) assume the structure as drawn. “And” between values parts separate entries of the source, which are not always exact repeats. Equal values may be shown once.
Key:
[1] = test system: Pythium ultimum Sensitive (Naturally Occurring); test: Fungitoxicity in V-8 juice agar, sensitive Pythium ultimum (Example 7); type: cell-based; conditions: for IC50: Globisporangium ultimum, V-8 juice agar, read-out: ED50, Pythium ultimum Sensitive (Naturally Occurring)
[2] = test system: Pythium ultimum Resistant; test: microbe, parasite or virus in culture; type: cell-based; conditions: for ED50 Ratio R/S, Pythium ultimum: ED50-resistant to ED50-sensitive; for IC50: Globisporangium ultimum, read-out: ED50, Pythium ultimum Resistant
[3] = test system: Pythium vexans Sensitive (Naturally Occurring); test: Fungitoxicity in V-8 juice agar, sensitive Pythium vexans (Example 7); type: cell-based; conditions: for IC50: Phytopythium vexans, V-8 juice agar, read-out: ED50, Pythium vexans Sensitive (Naturally Occurring)
Pythium vexans Resistant = test: microbe, parasite or virus in culture; type: cell-based; conditions: for ED50 Ratio R/S, Pythium vexans: ED50-resistant to ED50-sensitive; for IC50: Phytopythium vexans, read-out: ED50, Pythium vexans Resistant; for ED50 against resistant fungi (in words): resistant mutant strains of Pythium ultimum or Pythium vexans, agar studies
Plasmopara viticola [4] = test: whole plant or invertebrate; type: in vivo
Phytophthora infestans = test: whole plant or invertebrate; type: in vivo
Plasmopara viticola [5] = test: Eradicant Grape Downy Mildew control (Example 4); type: in vivo
Description: Compounds of the invention were tested for the eradicant control of the Grape Downy Mildew organism Plasmopara viticola. Detached leaves of between 70 and 80 mm diameter of 7-week-old Vitis vinifera cultivar Emperor grape seedlings were used as hosts. The leaves were inoculated with the organism and placed in an environment chamber and incubated at 18° C.-22° C. and at about 100% relative humidity for 1 to 2 days. The leaves were then sprayed with a solution of the test compound in acetone, water and a small amount of a nonionic emulsifier. The sprayed leaves were then maintained at 18° C.-22° C. and at about 100% relative humidity. Seven to nine days after inoculation, the amount of disease control was determined. The percent disease control provided by the compound of Example 1 was based on the percent disease reduction relative to nontreated check plants.

[6] = Plasmopara viticola, in Vitis vinifera, read-out: Fungicidal Efficacy, GDM (percent disease control)
[7] = Phytophthora infestans, in Solanum lycopersicum, read-out: Fungicidal Efficacy, TLB (percent disease control)
[8] = Table II Test 4, 16 ppm, infection in check plants 63%
[9] = Table II Test 4, 40 ppm, infection in check plants 63%
[10] = Table II Test 4, 100 ppm, infection in check plants 63%
[11] = Table II Test 4, 250 ppm, infection in check plants 63%
[12] = Table II Test 5, 6.4 ppm, infection in check plants 60%
[13] = Table II Test 5, 16 ppm, infection in check plants 60%
[14] = Table II Test 5, 40 ppm, infection in check plants 60%

SMILES: Cc1cccc(C)c1N(C(=O)CCl)C1CCOC1=O (stereo not shown) [CH2 Cl, reference compound]
- IC50 [1]: 0.005 µg/mL (≈ 0.0177 µM)
- ED50 Ratio R/S, Pythium ultimum [2]: 24,000
- IC50 [2]: 120 µg/mL (≈ 426 µM)
- IC50 [3]: 0.19 µg/mL (≈ 0.674 µM)
- ED50 Ratio R/S, Pythium vexans (Pythium vexans Resistant): 763
- IC50 (Pythium vexans Resistant): 145 µg/mL (≈ 515 µM)

SMILES: COCC(=O)N(c1c(C)cccc1C)C1CCOC1=O (stereo not shown) [CH2 OCH3, reference compound]
- IC50 [1]: 0.005 µg/mL (≈ 0.018 µM)
- ED50 Ratio R/S, Pythium ultimum [2]: 160,000
- IC50 [2]: 800 µg/mL (≈ 2880 µM)
- IC50 [3]: 0.15 µg/mL (≈ 0.541 µM)
- IC50 (Pythium vexans Resistant): 400 µg/mL (≈ 1440 µM)

SMILES: CC(=O)N(c1c(C)cccc1C)C1CCOC1=O (stereo not shown) [CH3]
- pest or weed control at 100 ppm (Plasmopara viticola [4]; [6]): 42%
- pest or weed control at 100 ppm (Phytophthora infestans; [7]): 79%

SMILES: Cc1cccc(C)c1N(C(=O)CC(C)C)C1CCOC1=O (stereo not shown) [CH2 CH(CH3)2]
- pest or weed control at 250 ppm (Plasmopara viticola [4]; [6]): 96%
- pest or weed control at 250 ppm (Phytophthora infestans; [7]): 0%

SMILES: CCCC(=O)N(c1c(C)cccc1C)C1CCOC1=O (stereo not shown) [Example 1, 3-(N-butyryl-N-2,6-dimethylphenylamino)-gamma-butyrolactone]
- percent disease control (eradicant) (Plasmopara viticola [5]; 40 ppm): 100%
- percent disease control (eradicant) (Plasmopara viticola [5]; 100 ppm): 100%
- percent disease control (eradicant) (Plasmopara viticola [5]; 250 ppm): 100%
- pest or weed control at 250 ppm (Plasmopara viticola [4]; [6]): 100%
- fungicidal activity toward Grape Downy Mildew (in words) (Plasmopara viticola [4]; in vivo): unexpectedly high fungicidal activity toward Grape Downy Mildew
- pest or weed control at 250 ppm (Phytophthora infestans; [7]): 99%
- Percent Control of TLB (Phytophthora infestans; [8]): 0%
- Percent Control of TLB (Phytophthora infestans; [9]): 48%
- Percent Control of TLB (Phytophthora infestans; [10]): 76%
- Percent Control of TLB (Phytophthora infestans; [11]): 94%
- IC50 [1]: 0.02 µg/mL (≈ 0.0726 µM)
- ED50 Ratio R/S, Pythium ultimum [2]: 4,750
- IC50 [2]: 95 µg/mL (≈ 345 µM)
- IC50 [3]: 0.43 µg/mL (≈ 1.56 µM)
- ED50 Ratio R/S, Pythium vexans (Pythium vexans Resistant): 100
- IC50 (Pythium vexans Resistant): 43 µg/mL (≈ 156 µM)
- ED50 against resistant fungi (in words) (Pythium vexans Resistant): substantially better ED50's against resistant fungi than the compounds where R^1 has less than 3 carbon atoms

SMILES: CCCC(=O)N(c1c(C)cccc1C)C1CCSC1=O (stereo not shown) [CH2 CH2 CH3, Y = S, Z = O, 3-(N-butyryl-2,6-dimethylanilino)-butyrothiolactone]
- pest or weed control at 250 ppm (Plasmopara viticola [4]; [6]): 99%
- pest or weed control at 250 ppm (Phytophthora infestans; [7]): 35%

SMILES: CCCCC(=O)N(c1c(C)cccc1C)C1CCOC1=O (stereo not shown) [3-(N-valeryl-N-2,6-dimethylphenylamino)-gamma-butyrolactone]
- percent disease control (eradicant) (Plasmopara viticola [5]; 40 ppm): 92%
- percent disease control (eradicant) (Plasmopara viticola [5]; 100 ppm): 100%
- pest or weed control at 250 ppm (Plasmopara viticola [4]; [6]): 100%
- Percent Control of GDM (Plasmopara viticola [4]; in vivo): 100% and 60% and 54%
- fungicidal activity toward Grape Downy Mildew (in words) (Plasmopara viticola [4]; in vivo): unexpectedly high fungicidal activity toward Grape Downy Mildew
- pest or weed control at 250 ppm (Phytophthora infestans; [7]): 96%
- Percent Control of TLB (Phytophthora infestans; [12]): 8%
- Percent Control of TLB (Phytophthora infestans; [13]): 28%
- Percent Control of TLB (Phytophthora infestans; [14]): 42%
- IC50 [3]: 0.1 µg/mL (≈ 0.346 µM)
- ED50 Ratio R/S, Pythium vexans (Pythium vexans Resistant): 400
- IC50 (Pythium vexans Resistant): 40 µg/mL (≈ 138 µM)
- ED50 against resistant fungi (in words) (Pythium vexans Resistant): substantially better ED50's against resistant fungi than the compounds where R^1 has less than 3 carbon atoms

SMILES: COCC(=O)N(c1c(C)cccc1C)C(C)C(=O)OC (stereo not shown) [CONTROL, N-methoxyacetyl-N-(1-methoxycarbonylethyl)-2,6-dimethylaniline, reference compound]
- IC50 [1]: 0.036 µg/mL (≈ 0.129 µM)
- ED50 Ratio R/S, Pythium ultimum [2]: 26,000
- IC50 [2]: 940 µg/mL (≈ 3370 µM)
- IC50 [3]: 0.075 µg/mL (≈ 0.268 µM)
- ED50 Ratio R/S, Pythium vexans (Pythium vexans Resistant): 8,467
- IC50 (Pythium vexans Resistant): 635 µg/mL (≈ 2270 µM)

SMILES: CCCCCC(=O)N(c1c(C)cccc1C)C1CCOC1=O (stereo not shown) [(CH2)4 CH3]
- pest or weed control at 250 ppm (Plasmopara viticola [4]; [6]): 100%
- base ED50 relative to Grape Downy Mildew producing fungi (natural), versus R^1 is propyl or butyl compounds (Plasmopara viticola [4]; in vivo): four to ten times higher than the R^1 is propyl or butyl compounds
- pest or weed control at 250 ppm (Phytophthora infestans; [7]): 91%
- Percent Control of TLB (Phytophthora infestans; [12]): 7%
- Percent Control of TLB (Phytophthora infestans; [13]): 3%
- Percent Control of TLB (Phytophthora infestans; [14]): 37%
- IC50 [3]: 0.56 µg/mL (≈ 1.85 µM)
- ED50 Ratio R/S, Pythium vexans (Pythium vexans Resistant): 29
- IC50 (Pythium vexans Resistant): 16 µg/mL (≈ 52.7 µM)
- ED50 R/S ratio (in words) (Pythium vexans Resistant; Table III): excellent
- effect of acquired Control resistance on fungitoxicity (in words) (Pythium vexans Resistant; Table III, resistant mutants of Pythium ultimum and/or Pythium vexans): substantially less affected by the acquired Control resistance than any of the compounds in Table III
- ED50 against resistant fungi (in words) (Pythium vexans Resistant): excellent

SMILES: Cc1cccc(C)c1N(C(=O)C(C)(C)C)C1CCOC1=O (stereo not shown) [C(CH3)3]
- pest or weed control at 250 ppm (Phytophthora infestans; [7]): 0%

SMILES: Cc1cccc(C)c1N(C(=O)C(C)C)C1CCOC1=O (stereo not shown) [CH(CH3)2]
- pest or weed control at 250 ppm (Plasmopara viticola [4]; [6]): 0%
- pest or weed control at 250 ppm (Phytophthora infestans; [7]): 23%

SMILES: CCCC(=S)N(c1c(C)cccc1C)C1CCOC1=O (stereo not shown) [CH2 CH2 CH3, Y = O, Z = S]
- pest or weed control at 250 ppm (Plasmopara viticola [4]; [6]): 100%
- pest or weed control at 250 ppm (Phytophthora infestans; [7]): 96%

SMILES: CCC(=O)N(c1c(C)cccc1C)C1CCOC1=O (stereo not shown) [C2 H5]
- pest or weed control at 250 ppm (Phytophthora infestans; [7]): 23%
- Percent Control of TLB (Phytophthora infestans; [8]): 0%
- Percent Control of TLB (Phytophthora infestans; [9]): 0%
- Percent Control of TLB (Phytophthora infestans; [10]): 54%
- Percent Control of TLB (Phytophthora infestans; [11]): 80%
- IC50 [1]: 0.26 µg/mL (≈ 0.995 µM)
- ED50 relative to the R^1 is propyl compound, P. ultimum (sensitive) ([1]; comparison in words): more than ten times
- ED50 Ratio R/S, Pythium ultimum [2]: 808
- IC50 [2]: 210 µg/mL (≈ 804 µM)
- ED50 relative to the R^1 is propyl compound, P. ultimum (resistant) ([2]; comparison in words): more than twice the ED50 for the R^1 is propyl compound
- IC50 [3]: > 1 µg/mL
- ED50 relative to the R^1 is butyl compound, P. vexans (sensitive) ([3]; comparison in words): more than ten times
- ED50 relative to the R^1 is propyl compound, P. vexans (sensitive) ([3]; comparison in words): more than two times
- ED50 Ratio R/S, Pythium vexans (Pythium vexans Resistant): < 140
- IC50 (Pythium vexans Resistant): 140 µg/mL (≈ 536 µM)
- ED50 R/S ratio (in words) (Pythium vexans Resistant; Table III): very good
- ED50 relative to the R^1 is butyl compound, P. vexans (resistant) (Pythium vexans Resistant; comparison in words): more than three times that of the R^1 is butyl compound
- ED50 relative to the R^1 is propyl compound, P. vexans (resistant) (Pythium vexans Resistant; comparison in words): more than three times that of the R^1 is propyl compound

Source: patent publication US4599351A (priority 1984, dated 1986)
